Data on two compounds can be found in patent publication US11793803B2, “Particle and pharmaceutical composition comprising an insoluble camptothecin compound with double core-shell structure and method for manufacturing the same” (SN BIOSCIENCE INC., priority 2017, dated 2023).

Converted amounts (≈) assume the structure as drawn.

The data set is described as follows: Solubility in different solvents (supersaturated solution, filtrate analysed by HPLC). The settings on record: for solubility at 30 min: thermodynamic from solid.

Description: A supersaturated solution was prepared by adding 20 mg of the hydrophobic camptothecin compound (camptothecin or SN-38) to 5 ml of ethanol, acetonitrile, acetone, ethyl acetate, chloroform dimethyl sulfoxide, or distilled water, followed by ultrasonic treatment for 30 minutes. The prepared supersaturated solution was filtered through a 0.45-μm filter, and a filtrate was properly diluted, followed by HPLC analysis.
The prepared supersaturated solution was filtered through a 0.45-μm filter, and a filtrate was properly diluted, followed by HPLC analysis.
HPLC (Agilent 1200 Series, USA) conditions were as follows. The column was CapcellPak C8 (5 m, 4.6 mm×25 cm, Shiseido); the mobile phase was a mixed solvent of methanol:acetonitrile:buffer (2.8 g/L sodium dihydrogenphosphate, 1.8 g/L 1-octanesulfonate aqueous solution)=17:24:59 (v/v); the flow rate was 1.5 mL/min; the measurement wavelength was UV 255 nm; and the sample injection amount was 15 μL.

On to `CC[C@@]1(O)C(=O)OCc2c1cc1n(c2=O)Cc2cc3ccccc3nc2-1` [Camptothecin, camptothecin], for which the solubility at 30 min amounted to 101 µg/mL (≈ 290 µM) (acetonitrile, organic solvent or mixture); 2 µg/mL (≈ 5.74 µM) (chloroform, organic solvent or mixture); 3290 µg/mL (≈ 9450 µM) (dimethyl sulfoxide, organic solvent or mixture); 9 µg/mL (≈ 25.8 µM) (distilled water, water); 149 µg/mL (≈ 428 µM) (ethanol, organic solvent or mixture); 134 µg/mL (≈ 385 µM) (ethyl acetate, organic solvent or mixture).

Consider `CCc1c2c(nc3ccc(O)cc13)-c1cc3c(c(=O)n1C2)COC(=O)[C@]3(O)CC` [SN-38, 7-ethyl-10-hydroxy-camptothecin], for which the “Solubility of hydrophobic camptothecin-based compound” value reads like this: (Acetonitrile) 402 µg/mL; (Chloroform) 9 µg/mL; (Dimethyl sulfoxide) 2263 µg/mL; (Distilled water) less than 1 µg/mL; (Ethanol) 779 µg/mL; (Ethyl acetate) 78 µg/mL.
